Experimental data: US20040014144A1, “Method of screening for substances acting on MSK1” (Leo Pharmaceutical Products Ltd. A/S, priority 1999, published 2004)

Assays:
[1] = tested on: TNF-α secretion in PBMC; experiment: LPS induced secretion of TNF-α in PBMC, enzyme immuno assay; format: cell-based, human; conditions: for inhibition of secretion of TNF-α: 30 min preincubation, 1 μg/ml LPS 18 hours
Procedure: (§1) The mononuclear cells (PBMC) were isolated from human peripheral blood by Lymphoprep® fractionation (Nycomed, Norway) and the THP-1 cells were obtained from the American Type Culture Collection (Accession No. TIB-202). Both cell lines were suspended in RPMI 1640 with 2% fetal calf serum (FCS), 2 mM L-glutamine, 100 U/ml penicillin and […] streptomycin. […] Louis, Mo., USA). […] The levels of IL-1β and TNF-α were measured in the culture supernatant by enzyme immuno assays (monoclonal antibodies were obtained from R & D Systems, Abingdon, UK).

[2] = tested on: IL-1β secretion in PBMC; experiment: LPS induced secretion of IL-1β in PBMC, enzyme immuno assay; format: cell-based, human; conditions: for inhibition of secretion of IL-1β: 30 min preincubation, 1 μg/ml LPS 18 hours
Procedure: as §1

[3] = tested on: TNF-α secretion in THP-1 cells; experiment: LPS induced secretion of TNF-α in THP-1 cells, enzyme immuno assay; format: cell-based, human; conditions: for inhibition of secretion of TNF-α: THP-1 cells, 1 μM of each compound, 60 min preincubation, 1 μg/ml LPS 5 hours
Procedure: as §1

[4] = tested on: NFκB transcriptional activity in THP-1 cells; experiment: NFκB-luciferase reporter gene assay in LPS stimulated THP-1 cells; format: cell-based, human; conditions: for reporter gene (luciferase) activity, % of the control value: THP-1 cells transfected with pBIIX, 1 μM of each compound, 1 hour pretreatment, 1 μg/ml LPS 5 h
Procedure: All transfections were performed in triplicate.

[5] = tested on: THP-1 or peripheral blood mononuclear cells (PBMC); experiment: LPS induced secretion of TNF-α and IL-1β in THP-1 or PBMC (summary statement); format: cell-based, human
Procedure: as §1

[6] = target: MSK1 (Homo sapiens, UniProt O75582); conditions: from reference (5); cited from earlier work
MSK1, sequence (O75582 whole entry): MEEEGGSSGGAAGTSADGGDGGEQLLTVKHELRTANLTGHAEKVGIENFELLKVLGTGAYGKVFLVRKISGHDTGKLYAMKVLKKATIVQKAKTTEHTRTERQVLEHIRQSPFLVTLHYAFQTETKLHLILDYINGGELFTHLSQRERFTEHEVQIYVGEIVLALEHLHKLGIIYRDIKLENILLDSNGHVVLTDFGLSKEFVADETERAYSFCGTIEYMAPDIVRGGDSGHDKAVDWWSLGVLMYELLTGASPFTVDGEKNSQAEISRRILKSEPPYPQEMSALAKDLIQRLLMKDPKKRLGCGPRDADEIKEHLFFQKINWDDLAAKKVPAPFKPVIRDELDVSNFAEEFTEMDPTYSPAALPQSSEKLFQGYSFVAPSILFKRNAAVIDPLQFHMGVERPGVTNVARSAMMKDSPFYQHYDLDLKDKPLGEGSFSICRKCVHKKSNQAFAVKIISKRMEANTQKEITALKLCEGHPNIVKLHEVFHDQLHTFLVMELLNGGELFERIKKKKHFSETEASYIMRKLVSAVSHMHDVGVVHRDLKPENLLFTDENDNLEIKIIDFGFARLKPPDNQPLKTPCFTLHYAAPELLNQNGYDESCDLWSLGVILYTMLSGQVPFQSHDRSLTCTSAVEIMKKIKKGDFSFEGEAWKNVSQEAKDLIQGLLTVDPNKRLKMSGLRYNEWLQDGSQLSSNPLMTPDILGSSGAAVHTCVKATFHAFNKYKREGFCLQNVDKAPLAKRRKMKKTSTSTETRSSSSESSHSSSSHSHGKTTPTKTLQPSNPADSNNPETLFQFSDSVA

Compound	inhibition of secretion of TNF-α ([1]; 10 μM compound)	inhibition of secretion of IL-1β ([2]; 10 μM compound)	inhibition of secretion of TNF-α [3] [%]	reporter gene (luciferase) activity, % of the control value [4]	inhibition at 1 µM ([1]; Homo sapiens, read-out: inhibition of secretion of TNF-α) [%]	inhibition at 1 µM ([2]; Homo sapiens, read-out: inhibition of secretion of IL-1β) [%]	inhibition at 1 µM ([3]; Homo sapiens, THP-1, read-out: inhibition of secretion of TNF-α) [%]	inhibition of secretion of TNF-α ([1]; 1 μM compound)	inhibition of secretion of IL-1β ([2]; 1 μM compound)	LPS induced NFκB transcriptional activity ([4]; THP-1 cells, summary statement)	LPS induced secretion of TNF-α and IL-1β [5]	inhibition of MSK1 activity in vitro [6]
COc1cccc(-c2cc(=O)c3ccccc3o2)c1N [PD98059]	about 40%	about 40%	5	no effect	–	–	–	–	–	–	–	–
C[S+]([O-])c1ccc(-c2nc(-c3ccncc3)c(-c3ccc(F)cc3)[nH]2)cc1 (stereo not drawn) [SB203580]	–	–	–	49%	40 to 60	40 to 60	30	–	–	–	–	–
Cn1cc(C2=C(c3cn(CCCSC(=N)N)c4ccccc34)C(=O)NC2=O)c2ccccc21 [Ro318220]	–	–	50	15%	–	–	–	approximately 90%	approximately 90%	strongly inhibited	strongly inhibited	potent inhibitor
